Measurements published in US20090030066A1, “SMALL MOLECULES FOR THE PROTECTION OF PANCREATIC CELLS” (priority 2007, published 2009).

Legend:
[1] = test system: STZ-treated mice; assay: Blood glucose and body weight in STZ-treated mice, first experiment (not fasted); format: in vivo; conditions: for Body weight: STZ 210 mg/kg + compound 4.5 mg/kg i.p., unit not given, in g; for protection of islet β-cells: STZ-induced type 1 diabetes model; for effect on STZ-induced rise of blood glucose: STZ-treated animals, 4.5 mg/kg i.p.; for effect on STZ-induced body weight loss: STZ-treated mice, to day 10
Description: Male C57BL/6 mice (12 weeks old) were housed in a specific pathogen-free facility with a 12-h light/dark cycle and given free access to food and water. Animals weighing between 28-31 g were selected for the experiments. In each group, at the start of experiment the body weight among individual animals differed by less than 1-g.
One group of mice received no treatment over the entire experiment. A second group received only 4.5 mg per kg of CCompound1 on days −2, −1, 0, +1, +2, +3, +4, +5, +6 and +7. A third/fourth/fifth/sixth group of animals were treated i.p. with 210 mg/kg of STZ on day 0. The fourth, fifth, and sixth group of animals also received 4.5 mg per kg each of CCompound1 (CC1; 4th group) or CCompound3 (CC3; 5th group), or CCompound19 (CC19; 6th group) on days −2, −1, 0, +1, +2, +3, +4, +5, +6 and +7 (with STZ treatment given on day 0). Each group consisted of 7 animals. Body weight was measured regularly.
CC compounds were dissolved in physiological saline while STZ was dissolved in 100 mM sodium citrate (pH 4.5). All compounds were injected intraperitoneally in 0.5 ml volume. Control animals were injected physiological saline (0.5 ml) on the same days when other groups were treated with CC compounds.
Blood samples were taken from the eye (canthus) of the animals on days −1, 0, +1, +2, +3, +7 and +10, and glucose concentrations in whole blood samples were immediately measured with the commercially available fast Glucose C test. The animals were not fasted prior to taking the blood samples. The results are expressed as the mean values from 7 animals ±std. dev. (S.D.).

[2] = test system: STZ-treated mice; assay: STZ-treated mice, second experiment: body weight to day 80 and survival; format: in vivo; conditions: STZ + compound
Text: In a second similar experiment performed with 6 mice in each group, the changes in body weight were followed for up to 80 days (when the last STZ-treated mouse died), and survival was followed for up to 100 days.
For the body weight (on the 80th day) and survival the following values were obtained: Untreated (6 survivors), 37.7 g; STZ-treated (one last survivor died on day 80, others survived for 22, 25, 27, 60, 75 days), 26.0 g; CCompound1-treated (6 survivors), 36.0 g; STZ+CCompound1 treated (6 survivors), 33.4 g; STZ+CCompound3-treated (5 survivors; one mouse died on day 78), 32.5 g. At the start of the experiment (day 0), the average body weight ranged from 28.6 to 29.8 g. Accordingly, by day 80, STZ-treated animals that were also treated with CCompound1 and CCompound3 gained about 50% of the weight gained by the untreated animals.

[3] = test system: AR42J rat pancreatic tumor cell line; assay: MTT proliferation of AR42J pancreatic tumor cells; format: cell-based; conditions: 96 h
Text: In the Examples below, an MTT assay was used to determine the relative number of viable cells after treatments. This calorimetric assay is based on the ability of living cells, but not dead cells, to reduce 3-(4,5-dimethyl thiazol-2-yl)-2,5-diphenyltetrazolium bromide. [Carmichael, J, De Graff, W. G., Gazdar, A. F., Minna, J. D. and Mitchell, J. B. (1987) Evaluation of tetrazolium-based semiautomated calorimetric assay: Assessment of chemosensitivity testing. Cancer Res. 47, 936-942], which is hereby incorporated by reference. For this assay, cells were plated in 96-well plates, and the MTT assay was performed as described in the above article both in untreated and treated cell cultures. The MTT assay also was performed at the time when the treatment was started to allow for assessment of the proliferation and survival rates in the control and treated cell cultures. In the MTT assay, higher values mean proportionally higher numbers of viable cells.
The AR42J rat pancreatic tumor cell line, purchased from ATTC (catalog number: CRL-1492), was propagated in modified Ham's medium containing 20% fetal bovine serum. These cells, derived from a transplantable tumor of the exocrine pancreas, contain significant amounts of amylase and other exocrine enzymes and they produce tumors in athymic mice.
For the experiment, cells were split in 96-well plates at 15,000 cells per well. After 24 hours, the medium was changed for fresh medium (0 hour) and various concentrations of CCompound1 and CCompound3 were added and incubations continued for 96 hours. The MTT assay was used to determine the relative number of viable cells. From the data shown in TABLE 13, in the 2-25 μM concentration range CC compounds had only inhibitory effects on the proliferation of pancreatic cancer cells.

[4] = STZ 210 mg/kg i.p. day 0 + compound 4.5 mg/kg i.p. days −2 to +7, day 0
[5] = STZ 210 mg/kg i.p. day 0 + compound 4.5 mg/kg i.p. days −2 to +7, day +1
[6] = STZ 210 mg/kg i.p. day 0 + compound 4.5 mg/kg i.p. days −2 to +7, day +2
[7] = STZ 210 mg/kg i.p. day 0 + compound 4.5 mg/kg i.p. days −2 to +7, day +3
[8] = STZ 210 mg/kg i.p. day 0 + compound 4.5 mg/kg i.p. days −2 to +7, day +7
[9] = STZ 210 mg/kg i.p. day 0 + compound 4.5 mg/kg i.p. days −2 to +7, day +10
[10] = STZ 210 mg/kg i.p. day 0 + compound 4.5 mg/kg i.p. days −2 to +7, day −1

SMILES | Body weight ([1]; day 0) | Body weight ([1]; day +1) | Body weight ([1]; day +2) | Body weight ([1]; day +3) | Body weight ([1]; day +7) | Body weight ([1]; day +10) | Blood glucose [1, 4] [mM] | Blood glucose [1, 5] [mM] | Blood glucose [1, 6] [mM] | Blood glucose [1, 7] [mM] | Blood glucose [1, 8] [mM] | Blood glucose [1, 9] [mM] | Blood glucose [1, 10] [mM] | protection of islet β-cells [1] | effect on STZ-induced rise of blood glucose [1] | effect on STZ-induced body weight loss [1] | also measured
C[N+](C)(C)CCC=C1c2ccccc2Sc2ccccc21.[I-] [CCcompound19, N,N,N-trimethyl-3-(9H-thioxanthen-9-ylidene)-propane-1-aminium iodide] | 28.1 ± 0.5 | 28.5 ± 1.2 | 26.4 ± 0.8 | 26.8 ± 1.0 | 26.2 ± 0.9 | 26.4 ± 1.7 | 4.8 ± 0.3 | 5.9 ± 0.6 | 8.7 ± 0.8 | 10.5 ± 0.9 | 12.5 ± 1.1 | 11.9 ± 1.1 | 4.3 ± 0.3 | protected islet β-cells | prevent drastic increase in blood glucose level | reduced the effect of STZ on body weight | 
CC[N+](C)(CC)CCOCc1ccc2sc3ccccc3c(=O)c2c1 [CCcompound3] | 28.0 ± 0.9 | 28.2 ± 0.8 | 25.3 ± 0.5 | 25.3 ± 0.6 | 25.2 ± 0.9 | 24.7 ± 1.3 | 4.7 ± 0.7 | 6.5 ± 0.7 | 10.7 ± 1.1 | 13.0 ± 1.1 | 14.2 ± 1.3 | 13.6 ± 1.6 | 4.6 ± 0.5 | clearly protected β-cell function | prevent drastic increase in blood glucose level | reduced the effect of STZ on body weight | weight gained by day 80 relative to the weight gained by the untreated animals [2]: about 50%; body weight on the 80th day ([2]; 6 mice per group): 32.5 g; survivors ([2]; 80th day, 6 mice per group): 5; A540 (MTT, relative number of viable cells) ([3]; 2 μM): 1.17; A540 (MTT, relative number of viable cells) ([3]; 5 μM): 0.868 ± 0.093; A540 (MTT, relative number of viable cells) ([3]; 10 μM): 0.745 ± 0.052; A540 (MTT, relative number of viable cells) ([3]; 25 μM): 0.675 ± 0.064
